According to patent US11820773B2, “Tricyclic compounds” (ALIGOS THERAPEUTICS, INC., priority 2020, dated 2023):

What follows are molecules tested on HBV (assay: HBV-DNA antiviral assay using HepG2.117 cells (intracellular HBV DNA by qPCR)). Conditions: Hepatitis B virus, 72 h, HBV DNA inhibition, 3 days incubation, 2% DMSO.
Format: cell-based, genotype D HBV
In short: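 Endpoints are intracellular HBV DNA by qPCR (interpolated from a gBlock standard curve) and ATP-based viability in duplicate plates. Doxycycline-free HepG2.117 Tet-off cells received compounds (9 concentrations, 4-fold steps, 2% DMSO) for 3 days. Inhibition normalised to DMSO wells; EC50/EC90/CC50 by curve fitting.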

Compound | EC50 [nM]
C[C@@H]1Cc2c(n3ncc(Cc4ccccc4)c3n(-c3ccc4c(c3)nnn4C)c2=O)CN1C(=O)c1ccc(Br)c(C(F)(F)F)c1 (stereo in doubt) [Compound 72a, rac-(11R)-5-benzyl-12-[4-bromo-3-(trifluoromethyl)benzoyl]-11-methyl-7-(1-methylbenzotriazol-5-yl)-2,3,7,12-tetrazatricyclo[7.4.0.0^2,6]trideca-1(9),3,5-trien-8-one] | < 50
C[C@H]1Cc2c(n3ncc(Cc4ccccc4)c3n(-c3ccc4c(c3)nnn4C)c2=O)CN1C(=O)c1ccc(Br)c(C(F)(F)F)c1 (stereo in doubt) [Compound 72b, rac-(11S)-5-benzyl-12-[4-bromo-3-(trifluoromethyl)benzoyl]-11-methyl-7-(1-methylbenzotriazol-5-yl)-2,3,7,12-tetrazatricyclo[7.4.0.0^2,6]trideca-1(9),3,5-trien-8-one] | < 50
CNC(=O)c1cnc(-n2c(=O)c3c(n4ncc(Cc5ccccc5)c24)CN(C(=O)c2ccc(Br)c(C(F)(F)F)c2)[C@H](C)C3)cn1 (stereo in doubt) [Compound 73a, N-methyl-5-[rac-(11R)-5-benzyl-12-[4-bromo-3-(trifluoromethyl)benzoyl]-11-methyl-8-oxo-2,3,7,12-tetrazatricyclo[7.4.0.0^2,6]trideca-1(9),3,5-trien-7-yl]pyrazine-2-carboxamide] | < 50
CNC(=O)c1cnc(-n2c(=O)c3c(n4ncc(Cc5ccccc5)c24)CN(C(=O)c2ccc(Br)c(C(F)(F)F)c2)[C@@H](C)C3)cn1 (stereo in doubt) [Compound 73b, N-methyl-5-[rac-(11S)-5-benzyl-12-[4-bromo-3-(trifluoromethyl)benzoyl]-11-methyl-8-oxo-2,3,7,12-tetrazatricyclo[7.4.0.0^2,6]trideca-1(9),3,5-trien-7-yl]pyrazine-2-carboxamide] | < 50
C[C@@H]1Cc2c(n3ncc(Cc4ccccc4)c3n(-c3ccc(-c4nnc(C(F)(F)F)[nH]4)cc3)c2=O)CN1C(=O)c1ccc(Br)c(C(F)(F)F)c1 (stereo in doubt) [Compound 74a, rac-(11R)-5-benzyl-12-[4-bromo-3-(trifluoromethyl)benzoyl]-11-methyl-7-[4-[5-(trifluoromethyl)-4H-1,2,4-triazol-3-yl]phenyl]-2,3,7,12-tetrazatricyclo[7.4.0.0^2,6]trideca-1(9),3,5-trien-8-one] | < 50
C[C@H]1Cc2c(n3ncc(Cc4ccccc4)c3n(-c3ccc(-c4nnc(C(F)(F)F)[nH]4)cc3)c2=O)CN1C(=O)c1ccc(Br)c(C(F)(F)F)c1 (stereo in doubt) [Compound 74b, rac-(11S)-5-benzyl-12-[4-bromo-3-(trifluoromethyl)benzoyl]-11-methyl-7-[4-[5-(trifluoromethyl)-4H-1,2,4-triazol-3-yl]phenyl]-2,3,7,12-tetrazatricyclo[7.4.0.0^2,6]trideca-1(9),3,5-trien-8-one] | 50 to 500
Cc1nn[nH]c1-c1ccc(-n2c(=O)c3c(n4ncc(CC5CC5)c24)CN(C(=O)c2ccc(Br)c(C(F)(F)F)c2)[C@H](C)C3)cc1 (stereo in doubt) [Compound 75a, rac-(11R)-12-[4-bromo-3-(trifluoromethyl)benzoyl]-5-(cyclopropylmethyl)-11-methyl-7-[4-(4-methyl-1H-triazol-5-yl)phenyl]-2,3,7,12-tetrazatricyclo[7.4.0.0^2,6]trideca-1(9),3,5-trien-8-one] | < 50
Cc1nn[nH]c1-c1ccc(-n2c(=O)c3c(n4ncc(CC5CC5)c24)CN(C(=O)c2ccc(Br)c(C(F)(F)F)c2)[C@@H](C)C3)cc1 (stereo in doubt) [Compound 75b, rac-(11S)-12-[4-bromo-3-(trifluoromethyl)benzoyl]-5-(cyclopropylmethyl)-11-methyl-7-[4-(4-methyl-1H-triazol-5-yl)phenyl]-2,3,7,12-tetrazatricyclo[7.4.0.0^2,6]trideca-1(9),3,5-trien-8-one] | 50 to 500
Cc1nn[nH]c1-c1ccc(-n2c(=O)c3c(n4ncc(CC5CCC5)c24)CN(C(=O)c2ccc(Br)c(C(F)(F)F)c2)[C@H](C)C3)cc1 (stereo in doubt) [Compound 76a, rac-(11R)-12-[4-bromo-3-(trifluoromethyl)benzoyl]-5-(cyclobutylmethyl)-11-methyl-7-[4-(4-methyl-1H-triazol-5-yl)phenyl]-2,3,7,12-tetrazatricyclo[7.4.0.0^2,6]trideca-1(9),3,5-trien-8-one] | < 50
Cc1nn[nH]c1-c1ccc(-n2c(=O)c3c(n4ncc(CC5CCC5)c24)CN(C(=O)c2ccc(Br)c(C(F)(F)F)c2)[C@@H](C)C3)cc1 (stereo in doubt) [Compound 76b, rac-(11S)-12-[4-bromo-3-(trifluoromethyl)benzoyl]-5-(cyclobutylmethyl)-11-methyl-7-[4-(4-methyl-1H-triazol-5-yl)phenyl]-2,3,7,12-tetrazatricyclo[7.4.0.0^2,6]trideca-1(9),3,5-trien-8-one] | 50 to 500
CNC(=O)c1cc(-n2c(=O)c3c(n4ncc(CC(C)C)c24)CN(C(=O)c2ccc(Br)c(C(F)(F)F)c2)[C@H](C)C3)nn1C (stereo in doubt) [Compound 77a, N,2-dimethyl-5-[rac-(11R)-12-[4-bromo-3-(trifluoromethyl)benzoyl]-5-isobutyl-11-methyl-8-oxo-2,3,7,12-tetrazatricyclo[7.4.0.0^2,6]trideca-1(9),3,5-trien-7-yl]pyrazole-3-carboxamide] | < 50
CNC(=O)c1cc(-n2c(=O)c3c(n4ncc(CC(C)C)c24)CN(C(=O)c2ccc(Br)c(C(F)(F)F)c2)[C@@H](C)C3)nn1C (stereo in doubt) [Compound 77b, N,2-dimethyl-5-[rac-(11S)-12-[4-bromo-3-(trifluoromethyl)benzoyl]-5-isobutyl-11-methyl-8-oxo-2,3,7,12-tetrazatricyclo[7.4.0.0^2,6]trideca-1(9),3,5-trien-7-yl]pyrazole-3-carboxamide] | < 50
C#CCc1cnn2c3c(c(=O)n(-c4ccc(C(=O)NC)cc4)c12)C[C@@H](C)N(C(=O)c1ccc(Br)c(C(F)(F)F)c1)C3 (stereo in doubt) [Compound 78a, N-methyl-4-[rac-(11R)-12-[4-bromo-3-(trifluoromethyl)benzoyl]-11-methyl-8-oxo-5-prop-2-ynyl-2,3,7,12-tetrazatricyclo[7.4.0.0^2,6]trideca-1 (9),3,5-trien-7-yl]benzamide] | < 50
C#CCc1cnn2c3c(c(=O)n(-c4ccc(C(=O)NC)cc4)c12)C[C@H](C)N(C(=O)c1ccc(Br)c(C(F)(F)F)c1)C3 (stereo in doubt) [Compound 78b, N-methyl-4-[rac-(11S)-12-[4-bromo-3-(trifluoromethyl)benzoyl]-11-methyl-8-oxo-5-prop-2-ynyl-2,3,7,12-tetrazatricyclo[7.4.0.0^2,6]trideca-1 (9),3,5-trien-7-yl]benzamide] | 50 to 500
Cc1cnn(-c2ccc(-n3c(=O)c4c(n5ncc(Cc6ccccc6)c35)CN(C(=O)c3ccc(Br)c(C(F)(F)F)c3)[C@H](C)C4)cc2)n1 (stereo in doubt) [Compound 79a, rac-(11R)-5-benzyl-12-[4-bromo-3-(trifluoromethyl)benzoyl]-11-methyl-7-[4-(4-methyltriazol-2-yl)phenyl]-2,3,7,12-tetrazatricyclo[7.4.0.0^2,6]trideca-1(9),3,5-trien-8-one] | < 50
Cc1cnn(-c2ccc(-n3c(=O)c4c(n5ncc(Cc6ccccc6)c35)CN(C(=O)c3ccc(Br)c(C(F)(F)F)c3)[C@@H](C)C4)cc2)n1 (stereo in doubt) [Compound 79b, rac-(11S)-5-benzyl-12-[4-bromo-3-(trifluoromethyl)benzoyl]-11-methyl-7-[4-(4-methyltriazol-2-yl)phenyl]-2,3,7,12-tetrazatricyclo[7.4.0.0^2,6]trideca-1(9),3,5-trien-8-one] | 50 to 500
Cc1nn[nH]c1-c1ccc(-n2c(=O)c3c(n4ncc(Cc5ccccc5)c24)CN(C(=O)c2ccc(Br)c(C(F)(F)F)c2)[C@H](C)C3)cc1 (stereo in doubt) [Compound 80a, rac-(11R)-5-benzyl-12-[4-bromo-3-(trifluoromethyl)benzoyl]-11-methyl-7-[4-(4-methyl-1H-triazol-5-yl)phenyl]-2,3,7,12-tetrazatricyclo[7.4.0.0^2,6]trideca-1(9),3,5-trien-8-one] | < 50
Cc1nn[nH]c1-c1ccc(-n2c(=O)c3c(n4ncc(Cc5ccccc5)c24)CN(C(=O)c2ccc(Br)c(C(F)(F)F)c2)[C@@H](C)C3)cc1 (stereo in doubt) [Compound 80b, rac-(11S)-5-benzyl-12-[4-bromo-3-(trifluoromethyl)benzoyl]-11-methyl-7-[4-(4-methyl-1H-triazol-5-yl)phenyl]-2,3,7,12 tetrazatricyclo[7.4.0.0^2,6]trideca-1(9),3,5-trien-8-one] | 50 to 500
CC(C)Cc1cnn2c3c(c(=O)n(-c4ccc(-c5n[nH]c(=O)n5C)cc4)c12)C[C@@H](C)N(C(=O)c1ccc(Br)c(C(F)(F)F)c1)C3 (stereo in doubt) [Compound 81a, rac-(11R)-12-[4-bromo-3-(trifluoromethyl)benzoyl]-5-isobutyl-11-methyl-7-[4-(4-methyl-5-oxo-1H-1,2,4-triazol-3-yl)phenyl]-2,3,7,12-tetrazatricyclo[7.4.0.0^2,6]trideca-1(9),3,5-trien-8-one] | < 50
CC(C)Cc1cnn2c3c(c(=O)n(-c4ccc(-c5n[nH]c(=O)n5C)cc4)c12)C[C@H](C)N(C(=O)c1ccc(Br)c(C(F)(F)F)c1)C3 (stereo in doubt) [Compound 81b, rac-(11S)-12-[4-bromo-3-(trifluoromethyl)benzoyl]-5-isobutyl-11-methyl-7-[4-(4-methyl-5-oxo-1H-1,2,4-triazol-3-yl)phenyl]-2,3,7,12-tetrazatricyclo[7.4.0.0^2,6]trideca-1(9),3,5-trien-8-one] | 50 to 500
